One assay deals with A375 (melanoma) cells. The assay can be described thus: Proliferation Assay (CellTiter-Glo). Format: cell-based. Conditions: 3 days incubation, CellTiter-Glo luminescence. As for the experimental part:
A375 (melanoma), Colo-205 (colon cancer), Miapaca (pancreatic), HPAFII (pancreatic), sNF02.0 (neurofibromatosis type 1), sNF96.2 (neurofibromatosis type 1) and 8505 (Thyroid) cells were grown and maintained in RPMI-1640 medium containing 100 U/mL penicillin-streptomycin and 10% fetal bovine serum. Cells were in growth medium in 96-well opaque-walled clear bottom plates and incubated in the CO2 incubator overnight before treatment. Cells were treated with compounds diluted in DMSO and a 10 point 3-fold serial dilutions were done. Plates were placed in 37° C., 5% CO2 to incubate for 3 days. Before they were developed by adding 100 μL of CellTiter-Glo reagent (Promega) to the assay plate, plates were shaken briefly for 2 mins and allowed to incubate at room temperature for 10 mins. The bottom of the plates was pasted with white back seal and luminescence was recorded with Flexstation3 with setting of luminescence, integration time 500 ms.
Compounds of Formula (I), (II) and (III) are active in this assay as noted in Table 2.

Another assay addresses ERK2 (Homo sapiens (Human), UniProt P28482). The assay can be described thus: Active ERK1 and ERK2 Kinase Assay (Mobility Shift Assay). Conditions: activated ERK2, Mobility Shift Assay. Format: biochemical. As for the experimental part:
Activated ERK1 and ERK2 activity was determined in a Mobility Shift Assay (MSA) format as follows: Compound and kinase solution were prepared with assay buffer (20 mM HEPES, 0.01% Triton X-100, 2 mM DTT, pH7.5) and mixed and incubated in for 30 mins at rt. ERK1 & ERK2 were then activated by the addition of F1-Substrate, ATP and metal solution and incubated for 1 h at rt. After 1 h, the reaction was terminated by the addition of […] of Termination Buffer (QuickScout Screening Assist MSA; Carna Biosciences) to the well. The reaction mixture was applied to LabChip™ system (PerkinElmer), and the product and substrate peptide peaks were separated, analyzed and quantitated. The kinase reaction is evaluated by the product ratio calculated from peak heights of product (P) and substrate(S) peptides (P/(P+S)).

Some results are limits rather than exact numbers.

Sequence of ERK2 (P28482 whole entry): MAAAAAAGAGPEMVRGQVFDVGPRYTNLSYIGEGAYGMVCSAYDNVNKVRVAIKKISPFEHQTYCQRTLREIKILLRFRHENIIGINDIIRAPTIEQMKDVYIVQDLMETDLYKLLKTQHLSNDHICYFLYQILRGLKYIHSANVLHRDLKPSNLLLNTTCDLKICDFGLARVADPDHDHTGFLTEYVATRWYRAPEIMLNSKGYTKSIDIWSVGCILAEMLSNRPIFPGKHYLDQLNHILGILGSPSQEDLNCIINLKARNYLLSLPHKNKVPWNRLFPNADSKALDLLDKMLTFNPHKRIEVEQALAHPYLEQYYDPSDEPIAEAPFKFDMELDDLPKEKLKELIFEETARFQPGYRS

For `Cn1cnc(-c2cnc(C3=CCN(C(=O)CN4CC[C@]5(CCN(c6ccc7[nH]nc(C8CCOCC8)c7n6)C5=O)C4)CC3)s2)n1` [Example 34], the IC50 in the assay on A375 (melanoma) cells (Homo sapiens, A-375, 72 h) is at most 500 nM; on ERK2 it was at most 50 nM.

On to `Cc1ccc(-c2n[nH]c3ccc(N4CC[C@]5(CCN(CC(=O)N6CC=C(c7ccc(-c8nn(C)c(=O)o8)cc7)CC6)C5)C4=O)nc23)cn1` [Example 35], for which the IC50 is at most 500 nM in the assay with A375 (melanoma) cells (Homo sapiens, A-375, 72 h) and at most 50 nM on ERK2.

As for `COc1ccc(-c2n[nH]c3ccc(N4CC[C@]5(CCN(CC(=O)N6CC=C(c7ncc(-c8ncn(C)n8)s7)CC6)C5)C4=O)nc23)cn1` [Example 36], the IC50 in the assay on A375 (melanoma) cells (Homo sapiens, A-375, 72 h) is at most 500 nM; at ERK2, at most 50 nM.

Take `Cn1cc(-c2n[nH]c3ccc(N4CC[C@]5(CCN(CC(=O)N6CC=C(c7ccc(-c8ncn(C)n8)cc7)CC6)C5)C4=O)nc23)cn1` [Example 37]: the IC50 in the assay on A375 (melanoma) cells (Homo sapiens, A-375, 72 h) is at most 500 nM; on ERK2 it was at most 50 nM.

`Cc1cc(-c2n[nH]c3ccc(N4CC[C@]5(CCN(CC(=O)N6CC=C(c7ccc(-c8ncn(C)n8)cc7)CC6)C5)C4=O)nc23)ccn1` [Example 38]: the half-inhibitory concentration (IC50) in the assay on A375 (melanoma) cells (Homo sapiens, A-375, 72 h) was at most 500 nM; on ERK2, at most 50 nM.

With `Cn1ccc(-c2n[nH]c3ccc(N4CC[C@]5(CCN(CC(=O)N6CC=C(c7ccc(-c8ncn(C)n8)cc7)CC6)C5)C4=O)nc23)n1` [Example 39], the IC50 is at least 1000 nM in the assay on A375 (melanoma) cells (Homo sapiens, A-375, 72 h) and 50 to 250 nM on ERK2.

Regarding `CC(C)n1cc(-c2n[nH]c3ccc(N4CC[C@]5(CCN(CC(=O)N6CC=C(c7ccc(-c8ncn(C)n8)cc7)CC6)C5)C4=O)nc23)cn1` [Example 40], the IC50 with A375 (melanoma) cells (Homo sapiens, A-375, 72 h) was at most 500 nM; on ERK2, at most 50 nM.

Turning to `CC(C)n1cc(-c2n[nH]c3ccc(N4CC[C@]5(CCN(CC(=O)N6CCN(c7ccc(-c8ncn(C)n8)cc7)CC6)C5)C4=O)nc23)cn1` [Example 41], the IC50 is at most 500 nM with A375 (melanoma) cells and at most 50 nM at ERK2.

Take `Cn1cnc(-c2ccc(C3=CCN(C(=O)CN4CC[C@]5(CCN(c6ccc7[nH]nc(N8CCC9(CC8)COC9)c7n6)C5=O)C4)CC3)cc2)n1` [Example 42, (S)-2-(3-(2-oxa-7-azaspiro[3.5]nonan-7-yl)-1H-pyrazolo[4,3-b]pyridin-5-yl)-7-(2-(4-(4-(1-methyl-1H-1,2,4-triazol-3-yl)phenyl)-3,6-dihydropyridin-1(2H)-yl)-2-oxoethyl)-2,7-diazaspiro[4.4]nonan-1-one]: the IC50 with A375 (melanoma) cells (Homo sapiens, A-375, 72 h) is at least 1000 nM; on ERK2, at least 250 nM.

With `Cc1ccc(-c2n[nH]c3ccc(N4CC[C@]5(CCN(CC(=O)N6CC=C(c7ncc(-c8ncn(C)n8)s7)CC6)C5)C4=O)nc23)cn1` [Example 43], the figures for the IC50 with A375 (melanoma) cells and at ERK2 were at most 500 nM and at most 50 nM, respectively.

For the molecule `Cc1cc(-c2n[nH]c3ccc(N4CC[C@]5(CCN(CC(=O)N6CCN(c7ccc(-c8ncn(C)n8)cn7)CC6)C5)C4=O)nc23)ccn1` [Example 44], the values for the IC50 with A375 (melanoma) cells and on ERK2 were at most 500 nM and at most 50 nM, respectively.

As for `Cn1cnc(-c2ccc(N3CCN(C(=O)CN4CC[C@]5(CCN(c6ccc7[nH]nc(-c8ccc(F)cc8)c7n6)C5=O)C4)CC3)nc2)n1` [Example 45], the results for the IC50 in the assay with A375 (melanoma) cells and at ERK2 were at most 500 nM and at most 50 nM, respectively.

Take `COc1ccc(-c2n[nH]c3ccc(N4CC[C@]5(CCN(CC(=O)N6CCN(c7ccc(-c8ncn(C)n8)cn7)CC6)C5)C4=O)nc23)cn1` [Example 46]: the results for the IC50 with A375 (melanoma) cells and at ERK2 were at most 500 nM and at most 50 nM, respectively.

On to `Cn1cnc(-c2cnc(C3=CCN(C(=O)CN4CC[C@]5(CCN(c6ccc7[nH]nc(-c8ccc(F)cc8)c7n6)C5=O)C4)CC3)s2)n1` [Example 47], for which the half-maximal inhibitory concentration (IC50) with A375 (melanoma) cells was at most 500 nM; at ERK2, at most 50 nM.

For the molecule `C[C@@H]1CN(c2n[nH]c3ccc(N4CC[C@]5(CCN(CC(=O)N6CC=C(c7ccc(-c8ncn(C)n8)cc7)CC6)C5)C4=O)nc23)C[C@H](C)O1` [Example 48], the IC50 in the assay with A375 (melanoma) cells was 500 to 1000 nM; on ERK2, at most 50 nM.

As to `Cn1cnc(-c2ccc(C3=CCN(C(=O)CN4CCC5(CCN(c6ccc7[nH]nc(N8CCOCC8)c7n6)C5=O)C4)CC3)cc2)n1` (stereo not drawn) [Example 49], the IC50 in the assay on A375 (melanoma) cells is at most 500 nM; on ERK2, at most 50 nM.

As to `Cn1cnc(-c2ccc(C3=CCN(C(=O)CN4CC[C@]5(CCN(c6ccc7[nH]nc(-c8ccc(F)cn8)c7n6)C5=O)C4)CC3)cc2)n1` [Example 50], the IC50 was 500 to 1000 nM in the assay on A375 (melanoma) cells and at most 50 nM at ERK2.

In the case of `Cn1cnc(-c2ccc(C3=CCN(C(=O)CN4CC[C@]5(CCN(c6ccc7[nH]nc(-c8ccc(C#N)cn8)c7n6)C5=O)C4)CC3)cc2)n1` [Example 51], the IC50 in the assay with A375 (melanoma) cells is at most 500 nM; on ERK2, at most 50 nM.

For the molecule `CC1CC(c2n[nH]c3ccc(N4CCC5(CCN(CC(=O)N6CC=C(c7ccc(-c8nn(C)c(=O)o8)cc7)CC6)C5)C4=O)nc23)CC(C)O1` (stereo not drawn) [Example 52], the results for the IC50 in the assay with A375 (melanoma) cells and on ERK2 were at most 500 nM and at most 50 nM, respectively.

`Cn1cnc(-c2cnc(C3=CCN(C(=O)CN4CC[C@]5(CCN(c6ccc7[nH]nc(-c8ccc(F)cn8)c7c6)C5=O)C4)CC3)s2)n1` [Example 54]: the IC50 in the assay on A375 (melanoma) cells is at most 500 nM; at ERK2 it was at most 50 nM.

Regarding `Cn1cnc(-c2ccc(C3=CCN(C(=O)CN4CC[C@]5(CCN(c6ccc7[nH]nc(-c8ccc(F)cn8)c7c6)C5=O)C4)CC3)s2)n1` [Example 55], the IC50 in the assay with A375 (melanoma) cells is at most 500 nM; on ERK2, at most 50 nM.

`Cn1cnc(-c2ccc(N3CCN(C(=O)CN4CC[C@]5(CCN(c6ccc7[nH]nc(-c8ccc(F)cn8)c7c6)C5=O)C4)CC3)cc2)n1` [Example 56]: the IC50 was at most 500 nM with A375 (melanoma) cells and at most 50 nM at ERK2.

Regarding `Cn1cnc(-c2ccc(N3CCN(C(=O)CN4CC[C@]5(CCN(c6ccc7[nH]nc(-c8ccc(F)cn8)c7c6)C5=O)C4)CC3)nc2)n1` [Example 57], the IC50 was at most 500 nM in the assay on A375 (melanoma) cells and at most 50 nM on ERK2.

For `Cn1cnc(-c2ccc(C3=CCN(C(=O)CN4CC[C@]5(CCN(c6ccc7[nH]nc(-c8cnn(C)n8)c7c6)C5=O)C4)CC3)cc2)n1` [Example 58, (S)-7-(2-(4-(4-(1-methyl-1H-1,2,4-triazol-3-yl)phenyl)-3,6-dihydropyridin-1(2H)-yl)-2-oxoethyl)-2-(3-(2-methyl-2H-1,2,3-triazol-4-yl)-1H-indazol-5-yl)-2,7-diazaspiro[4.4]nonan-1-one], the IC50 with A375 (melanoma) cells (Homo sapiens, A-375, 72 h) is at most 500 nM; at ERK2 it was at most 50 nM.

With `Cn1cnc(-c2ccc(C3=CCN(C(=O)CN4CC[C@]5(CCN(c6ccc7[nH]nc(-c8cnn(C)n8)c7n6)C5=O)C4)CC3)cc2)n1` [Example 59], the IC50 was 500 to 1000 nM with A375 (melanoma) cells and at most 50 nM at ERK2.

Take `COc1ccc(-c2n[nH]c3ccc(N4CC[C@]5(CCN(CC(=O)N6CC=C(c7ccc(-c8ncn(C)n8)cc7)CC6)C5)C4=O)cc23)nc1` [Example 60]: the values for the IC50 in the assay with A375 (melanoma) cells and at ERK2 were at most 500 nM and at most 50 nM, respectively.

Take `COc1cccc(-c2n[nH]c3ccc(N4CC[C@]5(CCN(CC(=O)N6CC=C(c7ccc(-c8ncn(C)n8)cc7)CC6)C5)C4=O)cc23)n1` [Example 61]: the results for the 50% inhibitory concentration (IC50) in the assay with A375 (melanoma) cells and at ERK2 were at most 500 nM and at most 50 nM, respectively.

For the molecule `Cn1cnc(-c2ccc(C3=CCN(C(=O)CN4CC[C@]5(CCN(c6ccc7[nH]nc(-c8ccc9c(c8)OC(C)(C)O9)c7n6)C5=O)C4)CC3)cc2)n1` [Example 62], the IC50 was 500 to 1000 nM in the assay with A375 (melanoma) cells and at most 50 nM on ERK2.

Regarding `COc1ccc(-c2n[nH]c3ccc(N4CC[C@]5(CCN(CC(=O)N6CC=C(c7ccc(-c8ncn(C)n8)cc7)CC6)C5)C4=O)nc23)cc1` [Example 63], the half-maximal inhibitory concentration (IC50) in the assay with A375 (melanoma) cells is at most 500 nM; at ERK2 it was at most 50 nM.

`Cn1cnc(-c2ccc(C3=CCN(C(=O)CN4CC[C@]5(CCN(c6ccc7[nH]nc(C8CCOCC8)c7n6)C5=O)C4)CC3)s2)n1` [Example 64]: the figures for the IC50 in the assay with A375 (melanoma) cells and at ERK2 were at most 500 nM and at most 50 nM, respectively.

Turning to `CC(C)Oc1ccc(-c2n[nH]c3ccc(N4CC[C@]5(CCN(CC(=O)N6CC=C(c7ccc(-c8ncn(C)n8)s7)CC6)C5)C4=O)nc23)cn1` [Example 65], the IC50 in the assay with A375 (melanoma) cells was at most 500 nM; on ERK2, at most 50 nM.

Consider `COc1ccc(-c2n[nH]c3ccc(N4CC[C@]5(CCN(CC(=O)N6CC=C(c7ccc(-c8ncn(C)n8)s7)CC6)C5)C4=O)nc23)cn1` [Example 66], for which the values for the IC50 in the assay with A375 (melanoma) cells and on ERK2 were at most 500 nM and at most 50 nM, respectively.

For `Cn1cnc(-c2ccc(C3=CCN(C(=O)CN4CC[C@]5(CCN(c6ccc7[nH]nc(-c8ccc(OC9CC9)nc8)c7n6)C5=O)C4)CC3)cc2)n1` [Example 67], the IC50 with A375 (melanoma) cells was at most 500 nM; on ERK2, at most 50 nM.

As to `Cn1cnc(-c2ccc(C3=CCN(C(=O)CN4CC[C@]5(CCN(c6ccc7[nH]nc(-c8ccc(Cl)cc8)c7n6)C5=O)C4)CC3)cc2)n1` [Example 68], the values for the IC50 in the assay with A375 (melanoma) cells and at ERK2 were at most 500 nM and at most 50 nM, respectively.

`Cn1cnc(-c2ccc(C3=CCN(C(=O)CN4CC[C@]5(CCN(c6ccc7[nH]nc(-c8ccc(Cl)cc8F)c7n6)C5=O)C4)CC3)cc2)n1` [Example 69]: the figures for the IC50 with A375 (melanoma) cells and at ERK2 were 500 to 1000 nM and at most 50 nM, respectively.

With `CC(C)Oc1ccc(-c2n[nH]c3ccc(N4CC[C@]5(CCN(CC(=O)N6CCC(c7ccc(-c8ncn(C)n8)cc7)CC6)C5)C4=O)nc23)cn1` [Example 71], the IC50 was 500 to 1000 nM with A375 (melanoma) cells and at most 50 nM on ERK2.

As usually defined, the IC50 is the point on the concentration scale where inhibition reaches its midpoint.
